Reference: the Kinase Knowledgebase extract (Sharma et al. 2016)

Key:
EGFR (human) [1] = biological target: EGFR (human) (UniProt P00533); conditions: a431
EGFR [2] = biological target: EGFR (UniProt P00533)
CDK2 [3] = biological target: CDK2 (UniProt P24941); assay: Enzyme Assay
EGFR [4] = biological target: EGFR (UniProt P00533); remark: listed apart in the source
EGFR (human) [5] = biological target: EGFR (human) (UniProt P00533)
PIK3CG (human) = PIK3CG (human) (UniProt P48736); assay: Inhibition of PIK3CG Kinase Activity by SPA Assay
PIK3CG (human), sequence (P48736 whole entry, looked up): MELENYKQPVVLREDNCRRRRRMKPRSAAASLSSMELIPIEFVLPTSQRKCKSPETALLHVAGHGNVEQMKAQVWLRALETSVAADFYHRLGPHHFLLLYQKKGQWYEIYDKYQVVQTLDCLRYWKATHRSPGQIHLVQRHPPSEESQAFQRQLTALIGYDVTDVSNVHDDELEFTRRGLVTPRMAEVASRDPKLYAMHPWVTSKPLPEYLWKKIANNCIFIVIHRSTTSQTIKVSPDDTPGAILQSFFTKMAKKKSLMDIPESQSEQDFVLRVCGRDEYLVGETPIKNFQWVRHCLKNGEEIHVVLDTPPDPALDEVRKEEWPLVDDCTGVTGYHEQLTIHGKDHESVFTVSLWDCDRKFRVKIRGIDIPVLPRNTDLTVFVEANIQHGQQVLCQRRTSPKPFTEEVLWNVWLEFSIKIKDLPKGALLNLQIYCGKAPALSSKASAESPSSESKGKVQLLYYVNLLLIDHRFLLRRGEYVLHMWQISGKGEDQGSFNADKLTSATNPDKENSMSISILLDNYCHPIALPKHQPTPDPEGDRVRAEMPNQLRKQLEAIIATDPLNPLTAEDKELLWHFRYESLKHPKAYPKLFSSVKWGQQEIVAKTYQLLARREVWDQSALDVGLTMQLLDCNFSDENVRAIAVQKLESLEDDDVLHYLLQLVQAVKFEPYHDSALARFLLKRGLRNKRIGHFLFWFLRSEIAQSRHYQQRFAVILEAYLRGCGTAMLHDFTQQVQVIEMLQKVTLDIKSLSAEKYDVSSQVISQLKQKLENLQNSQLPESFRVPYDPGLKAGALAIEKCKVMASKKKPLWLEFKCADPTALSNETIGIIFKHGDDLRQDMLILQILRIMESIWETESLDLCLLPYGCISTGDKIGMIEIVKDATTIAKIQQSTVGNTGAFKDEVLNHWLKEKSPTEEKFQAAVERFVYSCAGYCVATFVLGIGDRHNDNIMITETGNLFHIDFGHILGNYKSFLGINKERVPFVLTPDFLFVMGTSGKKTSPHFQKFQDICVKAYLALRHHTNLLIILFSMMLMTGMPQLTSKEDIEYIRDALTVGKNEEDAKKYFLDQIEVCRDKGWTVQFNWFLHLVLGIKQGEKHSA

CDK2 [6] = biological target: CDK2 (UniProt P24941); assay: Enzyme Assay; remark: listed apart in the source
CDK2 [7] = biological target: CDK2 (UniProt P24941); assay: Enzyme Assay; remark: listed apart in the source
EGFR [8] = biological target: EGFR (UniProt P00533); conditions: concentration not given here
EGFR (human) [9] = biological target: EGFR (human) (UniProt P00533); conditions: kb
EGFR [10] = biological target: EGFR (UniProt P00533); remark: listed apart in the source
MAPK14 (human) [11] = biological target: MAPK14 (human) (UniProt Q16539); assay: In vitro Inhibition of LPS-Induced TNF-alpha Release in THP-1 Cells; conditions: thp.1 monocytic
MAPK14 (human), sequence (Q16539 whole entry, looked up): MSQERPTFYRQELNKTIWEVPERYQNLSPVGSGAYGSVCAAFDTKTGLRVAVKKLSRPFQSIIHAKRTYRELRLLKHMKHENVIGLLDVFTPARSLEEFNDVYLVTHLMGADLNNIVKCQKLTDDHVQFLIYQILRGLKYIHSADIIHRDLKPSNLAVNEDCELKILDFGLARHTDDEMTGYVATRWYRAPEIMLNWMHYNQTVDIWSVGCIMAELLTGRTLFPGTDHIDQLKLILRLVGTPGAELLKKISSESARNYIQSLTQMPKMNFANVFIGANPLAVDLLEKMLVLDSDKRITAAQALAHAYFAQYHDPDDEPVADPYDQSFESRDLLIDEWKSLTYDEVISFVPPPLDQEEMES

EGFR [12] = biological target: EGFR (UniProt P00533); remark: listed apart in the source
EGFR (human) [13] = biological target: EGFR (human) (UniProt P00533); remark: listed apart in the source
ROCK2 (bovine) = ROCK2 (bovine) (UniProt Q28021); assay: Inhibition of RHO-Associated Coiled-Coil-Containing Protein Kinase 2 Activity
MAP2K1;MAPK14 (human) [14] = biological target: MAP2K1;MAPK14 (human) (UniProt Q16539); assay: Inhibition of BXPC3 Cell Proliferation by MTT Assay; conditions: bxpc-3 pancreatic
MAP2K1;MAPK14 (human), sequence (Q16539 whole entry, looked up): as above

MAP2K1;MAPK14 (human) [15] = biological target: MAP2K1;MAPK14 (human) (UniProt Q16539); assay: Inhibition of LnCAP Cell Proliferation by MTT Assay
MAP2K1;MAPK14 (human) [16] = biological target: MAP2K1;MAPK14 (human) (UniProt Q16539); assay: Inhibition of HT1197 Cell Proliferation by MTT Assay
EGFR (human) [17] = biological target: EGFR (human) (UniProt P00533); conditions: A431
EGFR (human) [18] = biological target: EGFR (human) (UniProt P00533); remark: listed apart in the source
EGFR (human) [19] = biological target: EGFR (human) (UniProt P00533); remark: listed apart in the source
EGFR [20] = biological target: EGFR (UniProt P00533); remark: listed apart in the source
EGFR (human) [21] = biological target: EGFR (human) (UniProt P00533); conditions: a431; remark: listed apart in the source
EGFR (human) [22] = biological target: EGFR (human) (UniProt P00533); conditions: a431; remark: listed apart in the source
EGFR (human) [23] = biological target: EGFR (human) (UniProt P00533); conditions: a431; remark: listed apart in the source
EGFR [24] = biological target: EGFR (UniProt P00533); remark: listed apart in the source
MAPK14 (Balb/c mice) [25] = assay: Animal Model; conditions: dose or concentration not given here
MAPK14 = MAPK14 (UniProt Q16539); assay: Enzyme Assay
MAPK14, sequence (Q16539 whole entry, looked up): as above

EGFR (human) [26] = biological target: EGFR (human) (UniProt P00533); conditions: nih3t3
MAPK14 (Balb/c mice) [27] = assay: Cell-Based Assay; conditions: peritoneal macrophage
EGFR (human) [28] = biological target: EGFR (human) (UniProt P00533); conditions: a431; remark: listed apart in the source
EGFR [29] = biological target: EGFR (UniProt P00533); remark: listed apart in the source
MAPK14 (human) [30] = biological target: MAPK14 (human) (UniProt Q16539); assay: Inhibition of MAPK14 Kinase Activity
EGFR [31] = biological target: EGFR (UniProt P00533); remark: listed apart in the source
MAPK14 (Balb/c mice) [32] = assay: Inhibition of LPS Induced TNF-alpha Release in Mice
EGFR [33] = biological target: EGFR (UniProt P00533); remark: listed apart in the source

EGFR (human), sequence (P00533 whole entry, looked up): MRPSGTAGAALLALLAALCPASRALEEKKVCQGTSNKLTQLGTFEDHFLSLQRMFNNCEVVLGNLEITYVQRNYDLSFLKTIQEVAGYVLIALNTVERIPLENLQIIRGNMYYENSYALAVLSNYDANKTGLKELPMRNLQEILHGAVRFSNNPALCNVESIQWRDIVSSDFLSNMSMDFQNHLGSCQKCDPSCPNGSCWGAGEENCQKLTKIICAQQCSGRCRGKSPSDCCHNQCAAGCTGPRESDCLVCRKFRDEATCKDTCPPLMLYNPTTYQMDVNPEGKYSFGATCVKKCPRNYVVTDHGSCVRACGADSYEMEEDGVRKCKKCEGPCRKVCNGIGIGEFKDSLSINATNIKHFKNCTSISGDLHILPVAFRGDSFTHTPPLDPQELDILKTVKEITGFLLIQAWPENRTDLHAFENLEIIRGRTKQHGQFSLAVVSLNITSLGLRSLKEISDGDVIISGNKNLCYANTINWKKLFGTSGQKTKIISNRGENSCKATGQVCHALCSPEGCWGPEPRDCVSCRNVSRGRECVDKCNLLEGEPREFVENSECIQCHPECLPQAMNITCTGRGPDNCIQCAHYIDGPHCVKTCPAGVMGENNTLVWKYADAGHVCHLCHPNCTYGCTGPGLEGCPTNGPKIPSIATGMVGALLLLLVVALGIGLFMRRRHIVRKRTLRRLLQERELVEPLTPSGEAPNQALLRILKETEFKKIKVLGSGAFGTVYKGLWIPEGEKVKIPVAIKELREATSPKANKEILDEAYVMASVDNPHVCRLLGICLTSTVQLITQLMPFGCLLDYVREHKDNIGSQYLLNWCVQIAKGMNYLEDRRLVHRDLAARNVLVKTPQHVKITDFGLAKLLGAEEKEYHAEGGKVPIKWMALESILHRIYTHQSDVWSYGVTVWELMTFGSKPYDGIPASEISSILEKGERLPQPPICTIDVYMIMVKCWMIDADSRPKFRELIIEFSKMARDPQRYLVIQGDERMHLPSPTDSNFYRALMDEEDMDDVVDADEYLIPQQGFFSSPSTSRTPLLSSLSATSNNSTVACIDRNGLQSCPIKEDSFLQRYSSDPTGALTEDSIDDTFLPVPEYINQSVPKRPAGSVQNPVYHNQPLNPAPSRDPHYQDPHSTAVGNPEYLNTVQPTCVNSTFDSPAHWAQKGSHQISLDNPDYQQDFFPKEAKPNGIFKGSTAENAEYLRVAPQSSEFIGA
EGFR, sequence (P00533 whole entry, looked up): as above

CC(C)C[C@@H]1NC(=O)[C@H](CC(C(=O)O)C(=O)O)NC(=O)C[S+]([O-])C[C@@H](C(N)=O)NC(=O)CCCCNC(=O)[C@H](CC(N)=O)NC(=O)C2(CCCCC2)NC(=O)[C@H](Cc2ccc(O)c(N)c2)NC1=O (stereo partly drawn)
IC50 (EGFR (human) [1]): 100 µM

CCc1cccc(CC)c1NC(=O)N1Cc2[nH]nc(NC(=O)c3ccc(N4CCN(C)CC4)cc3)c2C1
IC50 (EGFR [2]): > 10 µM
IC50 (CDK2 [3]): > 10 µM

Nc1ccc(-c2cc(Nc3ccc(S(N)(=O)=O)cc3)[nH]n2)cc1
IC50 (EGFR [4]): > 10 µM

CN(C)CC(=O)N1CCC[C@@H]1COc1cccc2ncnc(Nc3ccc(OCc4cncs4)c(Cl)c3)c12
IC50 (EGFR (human) [5]): 260 nM

COc1ccccc1Cn1cnc2ccc(/C=C3\SC(=O)NC3=O)cc21
IC50 (PIK3CG (human)): < 1000 nM

Cn1c2ccccc2c2cc[n+]3c(c21)C(=O)c1ccccc1-3
IC50 (CDK2 [6]): > 100 µM
IC50 (CDK2 [7]): > 100 µM

CC(C)(C)c1ccc(Nc2nnc(-c3ccc(C(N)=O)cc3)c3ccccc23)cc1
inhibition (EGFR [8]): 14%

COc1cc(OC2CCN(C)CC2)c2c(Nc3ccc(F)c(Cl)c3)ncnc2c1
IC50 (EGFR (human) [9]): 87 nM

CNc1ncc(-c2ccc(C(=O)N[C@H](CN)Cc3ccc(Cl)cc3Cl)s2)cn1
IC50 (EGFR [10]): > 10 µM

O=C(Nc1ccc2[nH]cc(CCc3ccncc3)c2c1)c1cc(F)cc(N2CCOCC2)c1
IC50 (MAPK14 (human) [11]): 530 nM

COCCN(C)CCOc1ccc2[nH]c(-c3cc4ccccc4[nH]c3=O)cc2c1
IC50 (EGFR [12]): 8.58 µM

CCN(CC)Cc1ccc(-c2cc3c(N[C@H](C)c4ccccc4)ncnc3[nH]2)cc1
IC50 (EGFR (human) [13]): 4 nM

CC(C)c1ccc(CN2CCCC(Nc3cccc4cnccc34)C2)cc1 (stereo not drawn)
IC50 (ROCK2 (bovine)): 530 nM

COc1cc2c(Nc3ccc(Sc4nccn4C)c(Cl)c3)c(C#N)cnc2cc1OCCCN1CCOCC1
IC50 (MAP2K1;MAPK14 (human) [14]): 29 nM
IC50 (MAP2K1;MAPK14 (human) [15]): 40 nM
IC50 (MAP2K1;MAPK14 (human) [16]): 50 nM

Nc1nc(Nc2ccc(S(N)(=O)=O)cc2)nn1C(=O)c1c(F)cccc1F
IC50 (EGFR (human) [17]): > 100 µM
IC50 (EGFR (human) [18]): > 10 µM
IC50 (EGFR (human) [19]): > 100 µM

CCOC(=O)c1cn2ncnc(Nc3ccc4c(cnn4Cc4ccccc4)c3)c2c1CC
IC50 (EGFR [20]): 200 nM

C/C(=C/c1cc2c(N)nc(N)nc2o1)c1ccc2ccccc2c1
IC50 (EGFR (human) [21]): > 50 µM
IC50 (EGFR (human) [22]): > 50 µM

C=CC(=O)Cc1ccc2ncnc(Nc3cccc(Br)c3)c2c1
IC50 (EGFR (human) [23]): 12.6 µM

COc1cccc(-c2cn(-c3ccc(CC(=O)NCCO)cc3)c3ncncc23)c1
IC50 (EGFR [24]): 800 nM

Cc1cc(-c2[nH]c(-c3ccc([S+](C)[O-])cc3)nc2-c2ccc(F)cc2)ccn1 (stereo not drawn)
difference (MAPK14 (Balb/c mice) [25]): -64%
IC50 (MAPK14): 370 nM

Cc1cc(Nc2ncnc3ccc(N4CCOCC4)cc23)ccc1OC1CCN(C(=O)CC(C)(C)C)CC1
IC50 (EGFR (human) [26]): > 10 µM

OCCC#Cc1nc(-c2ccc(F)cc2)c(-c2ccncc2)n1CCCc1ccccc1
IC50 (MAPK14 (Balb/c mice) [27]): 19.2 nM
IC50 (MAPK14): 16.1 nM

O=C1NC(=O)N(CCc2ccccc2)/C1=C/c1ccc(O)cc1
IC50 (EGFR (human) [28]): 27 µM

O=CN/C=C/c1cc(O)ccc1O
IC50 (EGFR [29]): 5 µM

O=C(CCCNc1ncc(C(F)(F)F)cc1Cl)NNS(=O)(=O)c1ccc(CNC(=O)c2ccc(Cl)cc2)s1
IC50 (MAPK14 (human) [30]): > 10 µM
IC50 (EGFR [31]): > 10 µM

CONC(=O)c1ccc(C)c(Nc2nc(N(C)CC(C)(C)C)nc(N3CCCN(C)CC3)n2)c1
ED50 (MAPK14 (Balb/c mice) [32]): Between 3 to 10 mg kg-1
Ki (MAPK14 (human) [30]): 4.2 nM

Fc1cccc(COc2ccc(Nc3ncncc3I)cc2Cl)c1
IC50 (EGFR [33]): 320 nM
